Measurements taken from ChEMBL document CHEMBL3352658 (Eur J Med Chem, 2014).
pIC50: −log10 of the molar value.

What was measured:
[1] = molecular target: T1, Tumor necrosis factor (Homo sapiens, UniProt P01375); assay: Inhibition of recombinant human TNFalpha binding to TNF receptor 1-ECD at 100 uM by surface plasmon resonance-based in vitro competitive binding assay
[2] = molecular target: T1, Tumor necrosis factor; assay: Inhibition of TNFalpha in HEK293T cells transfected with plasmid hRluc/TK/ luc2P/NF-kBRE/Hygro plasmid after 12 hrs by Dual-glo luciferase assay system; format: cell-based, HEK-293T; conditions: for pIC50: read-out: IC50
[3] = molecular target: T1, Tumor necrosis factor; assay: Inhibition of TNFalpha (unknown origin) assessed as IkappaB-alpha phosphorylation in Hela cells after 15 mins by ELISA; format: cell-based
[4] = molecular target: T1, Tumor necrosis factor; assay: Inhibition of TNFalpha in HEK293T cells transfected with plasmid hRluc/TK/ luc2P/NF-kBRE/Hygro plasmid at 90 uM after 12 hrs by Dual-glo luciferase assay system; format: cell-based; conditions: HEK-293T
[5] = molecular target: T1, Tumor necrosis factor; assay: Inhibition of TNFalpha in HEK293T cells transfected with plasmid hRluc/TK/ luc2P/NF-kBRE/Hygro plasmid at 30 uM after 12 hrs by Dual-glo luciferase assay system; format: cell-based; conditions: HEK-293T

T1 sequence (P01375 whole entry, the tested form may be a part): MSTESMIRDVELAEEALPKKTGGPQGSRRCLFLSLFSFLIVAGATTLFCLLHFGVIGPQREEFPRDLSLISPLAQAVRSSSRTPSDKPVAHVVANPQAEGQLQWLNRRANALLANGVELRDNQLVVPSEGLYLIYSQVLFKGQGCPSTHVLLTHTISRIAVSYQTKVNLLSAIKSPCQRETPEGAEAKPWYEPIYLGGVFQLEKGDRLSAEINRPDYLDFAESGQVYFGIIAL

Row | SMILES | inhibition [1] | other results
1 | Cc1cccc(/N=C2/NC(=O)/C(=C/c3cc(C)n(-c4cc(C(=O)O)cc(C(=O)O)c4)c3C)S2)c1C | 32% | 
2 | COc1ccc(C2Nc3ccccc3-c3nnc(SCc4ccccc4Cl)nc3O2)cc1C (stereo not drawn) | 32% | 
3 | CCOc1cc(C2NC(=O)NC(c3ccccc3)=C2C(C)=O)c(Br)c(Br)c1OCC(N)=O (stereo not drawn) | 16% | 
4 | CC(=O)Oc1ccc(C)cc1N1C(=O)c2cccc([N+](=O)[O-])c2C1=O | 68% | 
5 | COC(=O)[C@@](NNc1ccc(C)c(C)c1)(NC(=O)c1ccc(Cl)cc1Cl)C(F)(F)F | 17% | 
6 | Cc1ccc(C(=O)C2=C(O)C(=O)N(c3cccc(C(F)(F)F)c3)C2c2ccccc2[N+](=O)[O-])cc1 (stereo not drawn) | 26% | 
7 | O=C(O)CCCNS(=O)(=O)c1ccc2c3c(cccc13)C(=O)N2 |  | IC50 ([2]; hek-293t): Not Active
8 | N#CC1=C(N)Oc2n[nH]c(-c3ccccc3)c2C1c1ccc(OCC(N)=O)cc1 (stereo not drawn) | 20% | 
9 | O=C1Sc2c(S(=O)(=O)Nc3ccc(O)cc3)cc(S(=O)(=O)Nc3ccc(O)cc3)c3cccc1c23 | 52% | pIC50 [3]: 4.60; pIC50 [2]: 4.85
10 | CCOc1cc(/C=C2\C(=O)Nc3ccc(Br)cc32)cc(Cl)c1O | 24% | inhibition [4]: 40%
11 | O=C1Nc2ccc(S(=O)(=O)Nc3ccc(O)c(Cl)c3)c3cccc1c23 | 28% | pIC50 [3]: 4.34; pIC50 [2]: 4.37
12 | O=S(=O)(Nc1ccc(O)c(Cl)c1)c1ccc(F)cc1 | 31% | inhibition [5]: 30%; pIC50 [2]: < 4.00
13 | O=S(=O)(Nc1cc(Cl)c(O)c(Cl)c1)c1ccc2ccccc2c1 | 37% | inhibition [5]: 30%; pIC50 [2]: < 4.00
14 | CCc1nnc(NC(=O)CSc2nnc(-c3ccc([N+](=O)[O-])cc3)n2-c2ccc(C)cc2)s1 | 35% | 
